This note sets out measurements from US11098055B2, “Ester ACC inhibitors and uses thereof” (Gilead Apollo, LLC, priority 2015, dated 2021).

Each structure is given as a SMILES string. In brackets after ≈: the same amount, converted by molar mass. Read-outs that look alike come from different tables or passages of the source.

Common to all, as to format: cell-based
One assay deals with Rhizoctonia solani (Rs). Put plainly: Growth inhibition assay of fungal pathogens. The conditions noted are these: 48 h, read-out: Concentration at 90% Inhibition Rs. The essentials: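 Percent growth inhibition is scored at 48 h, by OD600 (blank-subtracted) and visual rating against the 2% DMSO control. Compounds were tested at final 50, 10, 2 ppm or 2, 0.4, 0.08 ppm on pathogen spores diluted in 17% V8 medium; mycelial plugs in ¼ PDB were used for Rhizoctonia.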

Assay [1] has as its system Phytophthora capsici (Pc). The experiment in a line: Growth inhibition assay of fungal pathogens. The conditions noted are these: 48 h, read-out: Concentration at 90% Inhibition Pc. In outline: (§1)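 Inoculum density for each fungus is set from 48 h growth curves, and spores are suspended in 17% V8 liquid medium. Compounds are added to final 50, 10, 2 ppm or 2, 0.4, 0.08 ppm. Plates are read by OD600 at 24 and 48 h; inhibition is scored at 48 h versus 2% DMSO.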

In another assay the test system is Botrtyis cinerea (Bc). Put plainly: Growth inhibition assay of fungal pathogens. The conditions noted are these: 48 h, read-out: Concentration at 90% Inhibition Bc. The essentials:
as §1

Assay [2] concerns Fusarium virguliforme (Fv). The experiment in a line: Growth inhibition assay of fungal pathogens. The conditions noted are these: 48 h, read-out: Concentration at 90% Inhibition Fv. The essentials: as §1
The test system of assay [3] is Fusarium moniliforme (Fm). The experiment in a line: Growth inhibition assay of fungal pathogens. Particulars: Fusarium verticillioides, 48 h, read-out: Concentration at 90% Inhibition Fm. In outline: as §1
The test system of assay [4] is Collectotrichum graminicola (Cg). Put plainly: Growth inhibition assay of fungal pathogens. The conditions noted are these: 48 h, read-out: Concentration at 90% Inhibition Cg. In outline:
as §1

The test system of a further assay is Septoria tritici (St). Put plainly: Growth inhibition assay of fungal pathogens. Particulars: Zymoseptoria tritici, 48 h, read-out: Concentration at 90% Inhibition St. The essentials:
as §1

The next assay has as its system Diplodia maydis (Dm). Put plainly: Growth inhibition assay of fungal pathogens. The conditions noted are these: Stenocarpella maydis, 48 h, read-out: Concentration at 90% Inhibition Dm. The essentials: as §1
Assay [5] has as its system C. parapsilosis ATCC 22019. The experiment in a line: Anti-Fungal (Candida) Activity Assay, broth microtiter MIC. The conditions noted are these: Lodderomyces parapsilosis, ATCC22019, 48 h, 3 replicates, MIC read at 48 h. In outline: (§2)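 Broth microdilution per CLSI M27-A3 in RPMI 1640 + MOPS, at a final inoculum of 2.5×10^3 CFU/mL. Compound DMSO stocks were diluted in water to a 128 μg/mL working solution. MIC was read visually against the growth control at 48 h.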

The next assay concerns C. albicans ATCC 90028. Described as above. Particulars: ATCC90028, 48 h, 3 replicates, MIC read at 48 h. In outline:
as §2

As to `CCOC(=O)c1sc2c(c1C)c(=O)n(C(C)(C)C(=O)N1CCCC1)c(=O)n2C[C@H](OCCO)c1cc(F)ccc1OC` [Compound I-12, (R)-ethyl 1-(2-(5-fluoro-2-methoxyphenyl)-2-(2-hydroxy-ethoxy)ethyl)-5-methyl-3-(2-methyl-1-oxo-1-(pyrrolidin-1-yl)propan-2-yl)-2,4-dioxo-1,2,3,4-tetrahydrothieno[2,3-d]pyrimidine-6-carboxylate], the IC90 in the assay on Rhizoctonia solani (Rs) (Table 4a) was 0.4 mg/L (≈ 0.66 µM); in the assay with Rhizoctonia solani (Rs) (Table 4b), 0.4 mg/L (≈ 0.66 µM); in [1] (Table 4a) it was not below 50 mg/L; in [1] (Table 4b), not below 50 mg/L; with Botrtyis cinerea (Bc) (Table 4a), 2 mg/L (≈ 3.3 µM); in the assay with Botrtyis cinerea (Bc) (Table 4b), 2 mg/L (≈ 3.3 µM). Also, the IC90 in assay [2] (Table 4a) worked out at 2 mg/L (≈ 3.3 µM); in assay [2] (Table 4b), 2 mg/L (≈ 3.3 µM); in assay [3] (Table 4a), 0.4 mg/L (≈ 0.66 µM); in assay [3] (Table 4b), 0.4 mg/L (≈ 0.66 µM); in assay [4] (Table 4a), 0.4 mg/L (≈ 0.66 µM); in [4] (Table 4b) it was 0.4 mg/L (≈ 0.66 µM). Besides, the IC90 was not below 50 mg/L with Septoria tritici (St) (Table 4a), not below 50 mg/L with Septoria tritici (St) (Table 4b), 2 mg/L (≈ 3.3 µM) with Diplodia maydis (Dm) (Table 4a) and 2 mg/L (≈ 3.3 µM) in the assay on Diplodia maydis (Dm) (Table 4b). The MIC – broadly, the lowest concentration found to suppress growth – is more than 4.1 mg/L in [5] (Table 3a), 0.25 to 1 mg/L (≈ 0.413 to 1.65 µM) in [5] (Table 3b (additional results)), more than 4.1 mg/L against C. albicans ATCC 90028 (Table 3a) and 2.1 to 4 mg/L (≈ 3.47 to 6.6 µM) against C. albicans ATCC 90028 (Table 3b (additional results)).
On to `CCOC(=O)c1sc2c(c1C)c(=O)n(C(C)(C)C(=O)N1CCCC1)c(=O)n2C[C@H](OCCOC)c1cc(F)ccc1OC` [Compound I-13, (R)-ethyl 1-(2-(5-fluoro-2-methoxyphenyl)-2-(2-methoxy-ethoxy)ethyl)-5-methyl-3-(2-methyl-1-oxo-1-(pyrrolidin-1-yl)propan-2-yl)-2,4-dioxo-1,2,3,4-tetrahydrothieno[2,3-d]pyrimidine-6-carboxylate], for which the IC90 in the assay with Rhizoctonia solani (Rs) (Table 4a) is not below 50 mg/L; with Rhizoctonia solani (Rs) (Table 4b), 10 mg/L (≈ 16.1 µM); in assay [1] (Table 4a), not below 50 mg/L; in [1] (Table 4b), not below 50 mg/L; in the assay with Botrtyis cinerea (Bc) (Table 4a), 2 mg/L (≈ 3.23 µM); in the assay with Botrtyis cinerea (Bc) (Table 4b), 2 mg/L (≈ 3.23 µM). Also, the IC90 was found to be 2 mg/L (≈ 3.23 µM) in [2] (Table 4a); 2 mg/L (≈ 3.23 µM) in assay [2] (Table 4b); 0.4 mg/L (≈ 0.645 µM) in assay [3] (Table 4a); 0.4 mg/L (≈ 0.645 µM) in assay [3] (Table 4b); 2 mg/L (≈ 3.23 µM) in assay [4] (Table 4a); 2 mg/L (≈ 3.23 µM) in assay [4] (Table 4b). In addition, the IC90 was not below 50 mg/L in the assay with Septoria tritici (St) (Table 4a), not below 50 mg/L in the assay on Septoria tritici (St) (Table 4b), not below 50 mg/L in the assay on Diplodia maydis (Dm) (Table 4a) and 10 mg/L (≈ 16.1 µM) in the assay with Diplodia maydis (Dm) (Table 4b). The MIC in assay [5] (Table 3a) was more than 4.1 mg/L; in assay [5] (Table 3b (additional results)), 2.1 to 4 mg/L (≈ 3.39 to 6.45 µM); against C. albicans ATCC 90028 (Table 3a), more than 4.1 mg/L; in the assay with C. albicans ATCC 90028 (Table 3b (additional results)), 2.1 to 4 mg/L (≈ 3.39 to 6.45 µM).
As for `CCOC(=O)c1sc2c(c1C)c(=O)n(C(C)(C)C(N)=O)c(=O)n2C[C@H](OCCC#N)c1cc(F)ccc1OC` [Compound I-14, (R)-ethyl 3-(1-amino-2-methyl-1-oxopropan-2-yl)-1-(2-(2-cyanoethoxy)-2-(5-fluoro-2-methoxyphenyl)ethyl)-5-methyl-2,4-dioxo-1,2,3,4-tetrahydro-thieno[2,3-d]pyrimidine-6-carboxylate], the IC90 with Rhizoctonia solani (Rs) (Table 4a) was not below 50 mg/L; in the assay with Rhizoctonia solani (Rs) (Table 4b) it was 10 mg/L (≈ 17.8 µM); in assay [1] (Table 4a), not below 50 mg/L; in assay [1] (Table 4b), not below 50 mg/L; with Botrtyis cinerea (Bc) (Table 4a) it was 2 mg/L (≈ 3.57 µM); with Botrtyis cinerea (Bc) (Table 4b) it was 2 mg/L (≈ 3.57 µM). The IC90 in assay [2] (Table 4a) was not below 50 mg/L; in assay [2] (Table 4b), 10 mg/L (≈ 17.8 µM); in [3] (Table 4a), 0.4 mg/L (≈ 0.714 µM); in [3] (Table 4b), 0.4 mg/L (≈ 0.714 µM); in [4] (Table 4a), not below 50 mg/L; in [4] (Table 4b), not below 50 mg/L. The IC90 in the assay with Septoria tritici (St) (Table 4a), in the assay on Septoria tritici (St) (Table 4b), in the assay with Diplodia maydis (Dm) (Table 4a) and with Diplodia maydis (Dm) (Table 4b) was not below 50 mg/L in each case. The MIC is more than 4.1 mg/L in assay [5] (Table 3a), 1.1 to 2 mg/L (≈ 1.96 to 3.57 µM) in assay [5] (Table 3b (additional results)), more than 4.1 mg/L in the assay with C. albicans ATCC 90028 (Table 3a) and 2.1 to 4 mg/L (≈ 3.75 to 7.14 µM) against C. albicans ATCC 90028 (Table 3b (additional results)).
